Test results reported in ChEMBL document CHEMBL1145682, “Bioactive compounds from Taiwania cryptomerioides” (J Nat Prod, 1997).
Values after ≈ are worked out from the molar mass of the structure shown.

Tests used:
[1] = Toxicity in Artemia salina; type: organism-based; conditions: in vivo
Aedes aegypti = test: Insecticidal activity against yellow fever mosquito larvae; type: functional
MCF7 = test: Cytotoxicity against human MCF7 cells after 7 days by MTT assay; type: functional; conditions: MCF7, 168 h, read-out: ED50 (the source's name)
A549 = test: Cytotoxicity against human A549 cells after 7 days by MTT assay; type: functional; conditions: A549, 168 h, read-out: ED50 (the source's name)
HT-29 = test: Cytotoxicity against human HT-29 cells after 7 days by MTT assay; type: functional; conditions: HT-29, 168 h, read-out: ED50 (the source's name)

SMILES	LC50 [1] [µg/mL]	LC50 (Aedes aegypti) [µg/mL]	EC50 (MCF7) [µg/mL]	EC50 (A549) [µg/mL]	EC50 (HT-29) [µg/mL]
O=C1OCc2c1cc1ccc3c(c1c2-c1ccc2c(c1)OCO2)OCO3 [HELIOXANTHIN]	> 500	3 (≈ 8.61 µM)	–	–	–
CC(C)[C@@H]1CC[C@@](C)(O)[C@]2(O)[C@@H](O)C[C@@H](C)C[C@@H]12	84.8 (≈ 331 µM)	> 250	41 (≈ 160 µM)	13.3 (≈ 52 µM)	12 (≈ 46.8 µM)
CC1=C[C@@H]2[C@@H](CC1)[C@](C)(O)CC[C@H]2C(C)C	9.4 (≈ 42.3 µM)	2 (≈ 8.99 µM)	13.1 (≈ 58.7 µM)	11.1 (≈ 49.9 µM)	0.778 (≈ 3.5 µM)
COc1cccc2c1C(=O)c1c(O)c3c(c(O)c1C2=O)C[C@@](O)(C(=O)CO)C[C@@H]3O[C@H]1C[C@H](N)[C@H](O)[C@H](C)O1 [DOXORUBICIN]	–	–	0.189 (≈ 0.348 µM)	0.00499 (≈ 0.00918 µM)	0.0357 (≈ 0.0657 µM)
CC(C)c1cc2c(cc1O)[C@@]1(C)CCCC(C)(C)[C@@H]1CC2 [FERRUGINOL]	42.3 (≈ 148 µM)	3 (≈ 10.5 µM)	23.4 (≈ 81.8 µM)	6.47 (≈ 22.6 µM)	6.43 (≈ 22.4 µM)
CC1=C[C@H]2[C@@H](C(C)C)CC[C@@](C)(O)[C@H]2CC1=O	54.4 (≈ 230 µM)	200 (≈ 846 µM)	12.9 (≈ 54.5 µM)	8.78 (≈ 37.1 µM)	7.85 (≈ 33.2 µM)
CC1=C[C@@H]2[C@@H](CC1=O)[C@](C)(O)CC[C@H]2C(C)C	200 (≈ 846 µM)	50 (≈ 212 µM)	30.1 (≈ 127 µM)	32.2 (≈ 136 µM)	32.5 (≈ 138 µM)
